Drawing on US9181234B2, “Antibacterial compounds” (priority 2010, dated 2015), this text covers solubility and MIC for 16 compounds.

≈ marks a conversion by molar mass, not a printed value. Where only a bound is given, the exact number is not on record here.

The nature of one series: physchem. Particulars: kinetic from dmso stock. In a few lines: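 DMSO doubling dilutions were diluted twenty-fold into 100 mM citrate (pH 4), PBS (pH 7.4) or carbonate-bicarbonate (pH 9). After 24 h equilibration at room temperature, absorbance was read at 620 nm. The reported value is the highest concentration without measurable precipitate.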
The subject of series [1] is Enterococcus faecalis (Isolate ID ATCC 29212). Nature of the series: Antibacterial activity, MIC, E. faecalis. In kind it is cell-based. Particulars: Enterococcus faecalis, ATCC29212; Gram positive strain; broth microdilution or agar dilution. The method, boiled down:
(§1)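 Readout is the MIC, established according to CLSI standard M7-A7 using either agar dilution or broth microdilution.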

Series [2] relates to Haemophilus influenzae (Isolate ID ATCC 49247). Briefly: Antibacterial activity, MIC, H. influenzae. The class given is cell-based. Particulars: Haemophilus influenzae, ATCC49247; Gram negative strain; broth microdilution or agar dilution. In a few lines:
as §1
(In broth dilution the organism is exposed to a series of concentrations in liquid medium.)

Series [3] deals with Streptococcus pyogenes (Isolate ID ATCC 51339). Briefly: Antibacterial activity, MIC, S. pyogenes. The class given is cell-based. Particulars: Streptococcus pyogenes, ATCC51339, Gram positive strain; broth microdilution or agar dilution. The method, boiled down:
as §1

The test system of series [4] is Staphylococcus aureus (Isolate ID ATCC 29213). Briefly: Antibacterial activity, MIC, S. aureus. The class given is cell-based. Particulars: Staphylococcus aureus, ATCC29213, Gram positive strain; broth microdilution or agar dilution. The method, boiled down:
as §1

[5] abbreviates: pH 7.4, aqueous buffer, Max Solubility.
Setting [6] is: pH 7.4, aqueous buffer, Solubility (pH 7.4).
The mark [7] stands for this setting: pH 7.4, aqueous buffer, Solubility Range.
Setting [8] is: pH 7.4, aqueous buffer, Solubility Range (maximum solubility).
Where [9] appears, read: pH 9, aqueous buffer, Max Solubility.
Setting [10] is: pH 9, aqueous buffer, Solubility Range (maximum solubility).

`CCNC(=O)Nc1nc2cc(-c3cnc(N4CCC(C)(C(=O)O)CC4)nc3)cc(-c3ncc(OC)cn3)c2s1` [Compound 51]: the solubility at 24 h is not below 800 µg/mL in the series “physchem” (setting [5]), not below 800 µg/mL in “physchem” (setting [6]), more than 800 µg/mL in “physchem” (setting [7]) and more than 800 µg/mL in the series “physchem” (setting [8]). Moreover, the MIC in series [1] is not above 0.25 µg/mL; in series [2], 0.25 to 1 µg/mL (≈ 0.456 to 1.82 µM); in series [3], not above 0.25 µg/mL; in series [4], not above 0.25 µg/mL.
Take `CCNC(=O)Nc1nc2cc(-c3cnc(N4CCC(C)(C(=O)O)CC4)nc3)cc(-c3cccc(OC)n3)c2s1` [Compound 52]: the solubility at 24 h is not below 800 µg/mL in the series “physchem” (setting [5]), not below 800 µg/mL in “physchem” (setting [6]), more than 800 µg/mL in the series “physchem” (setting [7]) and more than 800 µg/mL in the series “physchem” (setting [8]). Moreover, the MIC in series [1] is not above 0.25 µg/mL; in series [2], 1 to 16 µg/mL (≈ 1.83 to 29.2 µM); in series [3], not above 0.25 µg/mL; in series [4], not above 0.25 µg/mL.
`CCNC(=O)Nc1nc2cc(-c3cnc(N4CCC(C)(C(=O)O)CC4)nc3)cc(-c3ccc(F)c(C)n3)c2s1` [Compound 53]: the solubility at 24 h in “physchem” (setting [6]) is 25 µg/mL (≈ 45.5 µM); in “physchem” (setting [7]), 12.5 to 400 µg/mL (≈ 22.7 to 728 µM); in “physchem” (setting [9]), not below 800 µg/mL; in “physchem” (setting [10]) it was more than 800 µg/mL. Further, the MIC is not above 0.25 µg/mL in series [1], 1 to 16 µg/mL (≈ 1.82 to 29.1 µM) in series [2], not above 0.25 µg/mL in series [3] and not above 0.25 µg/mL in series [4].
Regarding `CCNC(=O)Nc1nc2cc(-c3cnc(N4CCC(C)(C(=O)O)CC4)nc3)cc(-c3ncc(F)cc3F)c2s1` [Compound 54], the solubility at 24 h was not below 800 µg/mL in the series “physchem” (setting [5]), not below 800 µg/mL in the series “physchem” (setting [6]), more than 800 µg/mL in “physchem” (setting [7]) and more than 800 µg/mL in “physchem” (setting [8]). The MIC in series [1] was not above 0.25 µg/mL; in series [2], 1 to 16 µg/mL (≈ 1.81 to 28.9 µM); in series [3], not above 0.25 µg/mL; in series [4], not above 0.25 µg/mL.
For `CCNC(=O)Nc1nc2cc(-c3cnc(N4CCC(C)(C(=O)O)CC4)nc3)cc(-c3nccc(OC)c3F)c2s1` [Compound 55], the solubility at 24 h was 400 µg/mL (≈ 707 µM) in the series “physchem” (setting [6]), 400 to 800 µg/mL (≈ 707 to 1410 µM) in the series “physchem” (setting [7]), not below 800 µg/mL in “physchem” (setting [9]) and more than 800 µg/mL in the series “physchem” (setting [10]). The MIC in series [1] was not above 0.25 µg/mL; in series [2], 0.25 to 1 µg/mL (≈ 0.442 to 1.77 µM); in series [3] it was not above 0.25 µg/mL; in series [4], not above 0.25 µg/mL.
On to `CCNC(=O)Nc1nc2cc(-c3cnc(N4CCC(C)(C(=O)O)CC4)nc3)cc(-c3cnc(OC)cn3)c2s1` [Compound 56], for which the solubility at 24 h is not below 800 µg/mL in “physchem” (setting [5]), not below 800 µg/mL in the series “physchem” (setting [6]), more than 800 µg/mL in “physchem” (setting [7]) and more than 800 µg/mL in the series “physchem” (setting [8]). Moreover, the MIC was not above 0.25 µg/mL in series [1], 0.25 to 1 µg/mL (≈ 0.456 to 1.82 µM) in series [2], not above 0.25 µg/mL in series [3] and not above 0.25 µg/mL in series [4].
As for `CCNC(=O)Nc1nc2cc(-c3cnc(N4CCC(C)(C(=O)O)CC4)nc3)cc(-c3cc(=O)n(C(C)C)cn3)c2s1` [Compound 57], the solubility at 24 h is 200 µg/mL (≈ 347 µM) in the series “physchem” (setting [6]), 12.5 to 400 µg/mL (≈ 21.7 to 694 µM) in the series “physchem” (setting [7]), 400 µg/mL (≈ 694 µM) in the series “physchem” (setting [9]) and 400 to 800 µg/mL (≈ 694 to 1390 µM) in the series “physchem” (setting [10]). Further, the MIC lay within 0.25 to 1 µg/mL (≈ 0.434 to 1.73 µM) in series [1], 1 to 16 µg/mL (≈ 1.73 to 27.7 µM) in series [2], 0.25 to 1 µg/mL (≈ 0.434 to 1.73 µM) in series [3] and 1 to 16 µg/mL (≈ 1.73 to 27.7 µM) in series [4].
Consider `CCNC(=O)Nc1nc2cc(-c3cnc(N4CCC(C)(C(=O)O)CC4)nc3)cc(-c3ccc(C#N)c(C)n3)c2s1` [Compound 58], for which the solubility at 24 h in the series “physchem” (setting [6]) was 25 µg/mL (≈ 44.9 µM); in “physchem” (setting [7]), 12.5 to 400 µg/mL (≈ 22.5 to 719 µM); in the series “physchem” (setting [9]), 50 µg/mL (≈ 89.8 µM); in “physchem” (setting [10]), 12.5 to 400 µg/mL (≈ 22.5 to 719 µM). Further, the MIC in series [1] is not above 0.25 µg/mL; in series [2] it was 1 to 16 µg/mL (≈ 1.8 to 28.7 µM); in series [3], not above 0.25 µg/mL; in series [4], not above 0.25 µg/mL.
On to `CCNC(=O)Nc1nc2cc(-c3cnc(N4CCC(C)(C(=O)O)CC4)nc3)cc(-c3ncc(C)cn3)c2s1` [Compound 59], for which the solubility at 24 h in “physchem” (setting [5]) is not below 800 µg/mL; in the series “physchem” (setting [6]), not below 800 µg/mL; in “physchem” (setting [7]) it was more than 800 µg/mL; in the series “physchem” (setting [8]) it was more than 800 µg/mL. Besides, the MIC in series [1], in series [2], in series [3] and in series [4] was not above 0.25 µg/mL throughout.
For `CCNC(=O)Nc1nc2cc(-c3cnc(N4CCC(C)(C(=O)O)CC4)nc3)cc(-c3ncc(CC)cn3)c2s1` [Compound 60], the solubility at 24 h in the series “physchem” (setting [6]) is 12.5 µg/mL (≈ 22.9 µM); in “physchem” (setting [7]), 12.5 to 400 µg/mL (≈ 22.9 to 732 µM); in “physchem” (setting [9]), 400 µg/mL (≈ 732 µM); in “physchem” (setting [10]), 400 to 800 µg/mL (≈ 732 to 1460 µM). In addition, the MIC is not above 0.25 µg/mL in series [1], 0.25 to 1 µg/mL (≈ 0.457 to 1.83 µM) in series [2], not above 0.25 µg/mL in series [3] and not above 0.25 µg/mL in series [4].
In the case of `CCNC(=O)Nc1nc2cc(-c3cnc(N4CCC(C)(C(=O)O)CC4)nc3)cc(-c3ncccc3OC)c2s1` [Compound 61], the solubility at 24 h was not below 800 µg/mL in “physchem” (setting [5]), not below 800 µg/mL in the series “physchem” (setting [6]), more than 800 µg/mL in “physchem” (setting [7]) and more than 800 µg/mL in the series “physchem” (setting [8]). Further, the MIC in series [1] is not above 0.25 µg/mL; in series [2], 1 to 16 µg/mL (≈ 1.83 to 29.2 µM); in series [3], not above 0.25 µg/mL; in series [4], not above 0.25 µg/mL.
With `CCNC(=O)Nc1nc2cc(-c3cnc(N4CCC(C)(C(=O)O)CC4)nc3)cc(-c3nc(OC)ccc3N)c2s1` [Compound 62], the solubility at 24 h in “physchem” (setting [5]) was not below 800 µg/mL; in “physchem” (setting [6]), not below 800 µg/mL; in “physchem” (setting [7]), more than 800 µg/mL; in “physchem” (setting [8]), more than 800 µg/mL. For the same compound, the MIC in series [1] is not above 0.25 µg/mL; in series [2] it was 1 to 16 µg/mL (≈ 1.78 to 28.4 µM); in series [3] it was 0.25 to 1 µg/mL (≈ 0.444 to 1.78 µM); in series [4], 0.25 to 1 µg/mL (≈ 0.444 to 1.78 µM).
On to `CCNC(=O)Nc1nc2cc(-c3cnc(N4CCC(C)(C(=O)O)CC4)nc3)cc(-c3ncc(C#N)cc3F)c2s1` [Compound 63], for which the solubility at 24 h is 400 µg/mL (≈ 714 µM) in the series “physchem” (setting [6]), 400 to 800 µg/mL (≈ 714 to 1430 µM) in “physchem” (setting [7]), not below 800 µg/mL in the series “physchem” (setting [9]) and more than 800 µg/mL in “physchem” (setting [10]). In addition, the MIC in series [1] is not above 0.25 µg/mL; in series [2] it was 1 to 16 µg/mL (≈ 1.78 to 28.5 µM); in series [3] it was not above 0.25 µg/mL; in series [4] it was not above 0.25 µg/mL.
In the case of `CCNC(=O)Nc1nc2cc(-c3cnc(N4CCC(C)(C(=O)O)CC4)nc3)cc(-c3nc(C)ccc3OC)c2s1` [Compound 64], the solubility at 24 h in the series “physchem” (setting [5]) is not below 800 µg/mL; in “physchem” (setting [6]) it was not below 800 µg/mL; in “physchem” (setting [7]), more than 800 µg/mL; in the series “physchem” (setting [8]), more than 800 µg/mL. In addition, the MIC was not above 0.25 µg/mL in series [1], 1 to 16 µg/mL (≈ 1.78 to 28.5 µM) in series [2], not above 0.25 µg/mL in series [3] and not above 0.25 µg/mL in series [4].
For `CCNC(=O)Nc1nc2cc(-c3cnc(N4CCC(C)(C(=O)O)CC4)nc3)cc(-c3ncc(C)cc3C#N)c2s1` [Compound 65], the solubility at 24 h in “physchem” (setting [5]) was 12.5 µg/mL (≈ 22.5 µM); in “physchem” (setting [6]), 12.5 µg/mL (≈ 22.5 µM); in “physchem” (setting [7]) it was 12.5 to 400 µg/mL (≈ 22.5 to 719 µM); in “physchem” (setting [8]), 12.5 to 400 µg/mL (≈ 22.5 to 719 µM). In addition, the MIC is not above 0.25 µg/mL in series [1], 1 to 16 µg/mL (≈ 1.8 to 28.7 µM) in series [2], not above 0.25 µg/mL in series [3] and not above 0.25 µg/mL in series [4].
`CCNC(=O)Nc1nc2cc(-c3cnc(N4CCC(C)(C(=O)O)CC4)nc3)cc(-c3cnc(C)cn3)c2s1` [Compound 66]: the solubility at 24 h in the series “physchem” (setting [5]) is not below 800 µg/mL; in the series “physchem” (setting [6]), not below 800 µg/mL; in “physchem” (setting [7]), more than 800 µg/mL; in “physchem” (setting [8]), more than 800 µg/mL. The MIC in series [1] was not above 0.25 µg/mL; in series [2], 0.25 to 1 µg/mL (≈ 0.469 to 1.88 µM); in series [3] it was not above 0.25 µg/mL; in series [4], not above 0.25 µg/mL.

The solubility is the concentration that dissolves in the medium under given conditions. Read a high solubility as much dissolved substance.
